Experimental data published in paper PMC6408518, “Structure guided design of an antibacterial peptide that targets UDP-N-acetylglucosamine acyltransferase” (Scientific Reports, 2019).
“And” between values parts separate entries of the source, which are not always exact repeats. Identical values can stand only once. Where a SMILES comes first, the peptide text is derived from it. Where no end group is shown, it is not given here.

Key:
E. coli LpxA [1] = target: T1, E. coli LpxA (Escherichia coli, UniProt P0A722); assay: LpxA acyltransferase inhibition assay ([α-32P]UDP-GlcNAc conversion, TLC); type: biochemical; design: made in house; host or cells: E. coli BL21(DE3)/pLysE/pTO1; details: 1 µM UDP-GlcNAc, 1 µM R-3-hydroxymyristoyl-ACP, 1 nM LpxA, 30 °C, 10% DMSO; SD of triplicates
Method: The peptides were assayed for acyl transferase inhibitory activity under conditions where the concentrations of UDP-GlcNAc and R-3-hydroxymyristoyl-ACP were 1 µM each. […] Peptide CR21 and CR23 still have good inhibitory potential of 10 μM albeit lower than peptide CR20.
The LpxA enzymatic reaction monitors the conversion of [α-^32P]UDP-GlcNAc to [α-^32P]UDP-3-O-(R-3-hydroxymyristoyl)- GlcNAc. The assay components consist of 40 mM HEPES buffer, pH 8, 1 mg/ml BSA, 1 μM R-3-hydroxymyristoyl-ACP, and 1 μM [α-^32P]UDP-GlcNAc (2 × 10^6 cpm/nmol). […] The final concentration of DMSO was adjusted to 10% to match the peptide solvent in all enzymatic assays.
The reactions were started by the addition of 1 nM of LpxA and incubated at 30 °C for a maximum of 10 min. Three or four time points were collected during this time. Termination of the reaction was accomplished by the addition of 1 μl portions onto a silica thin layer chromatography (TLC) plate. The TLC plates were air dried for 10 min before developing in chloroform/methanol/water/acetic acid (25:15:4:2, v/v). Plates were exposed to PhosphorImager screens overnight, and the data were evaluated with Molecular Dynamics PhosphorImager equipped with ImageQuant software. […] To determine the IC50 at 30 °C, the data were fit to the following equations,1 vi/vc=IC50/(I+IC50) or1a %activity=100/(1+I/IC50) vi represents the initial rate, at given concentrations of inhibitor, vc represents the initial velocity of the control reaction without inhibitor, and I represents the inhibitor concentration. The IC50 determination represents the concentration of inhibitor needed to inhibit 50% of the enzyme activity.

E. coli = details: peptide expressed fused to GST in E. coli; cited from earlier work
E. coli LpxA [2] = target: T1, E. coli LpxA; details: previous enzymatic evidence; cited from earlier work

T1 sequence (P0A722 whole entry): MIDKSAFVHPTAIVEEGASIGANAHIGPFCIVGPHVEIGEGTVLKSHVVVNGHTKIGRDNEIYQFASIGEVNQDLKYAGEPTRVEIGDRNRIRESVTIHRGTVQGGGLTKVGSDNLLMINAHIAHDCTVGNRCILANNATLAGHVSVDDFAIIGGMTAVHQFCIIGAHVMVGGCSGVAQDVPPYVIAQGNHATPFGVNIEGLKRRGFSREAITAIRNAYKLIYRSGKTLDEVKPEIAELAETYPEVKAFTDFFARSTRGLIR

| Molecule | IC50 (E. coli LpxA [1]) | Bacterial growth (E. coli) | Mode of inhibition (E. coli LpxA [2]) |
| --- | --- | --- | --- |
| CSCC[C@H](NC(=O)[C@@H](N)Cc1c[nH]c2ccccc12)C(=O)N[C@@H](CC(C)C)C(=O)N[C@@H](CC(=O)O)C(=O)O [CR26, WMLD] (H-WMLD-OH) | > 100 µM | – | – |
| GWMLDPIA [CR24] | > 100 µM | – | – |
| GWMLDPIAGKW [CR23] | 10 ± 0.3 µM | – | – |
| GWMLDPIAGKWSR [CR19] | 0.077 ± 0.003 µM | – | – |
| SSGWMLDPIAGKW [CR22] | 9 ± 2.2 µM | – | – |
| SSGWMLDPIAGKWS [CR21] | 12 ± 1.4 µM | – | – |
| SSGWMLDPIAGKWSR [Peptide 920] | – | inhibited bacterial growth | largely competitive with respect to ACP |
| WMLDPI [CR25, WMLDPI] | > 100 µM | – | – |
| WMLDPIAGKWSR [CR20] | ~0.05 µM and 0.05 µM | – | – |
